The RepoRT retention time repository

Test: A: acetonitrile + 0.1% formic acid + 10 mM ammonium formate; B: 5% water + 95% acetonitrile + 0.1% formic acid + 10 mM ammonium formate; gradient (min/%B) 0/10 2/10 22/100 27/100 27.1/10
Conditions: stereoisomer not certain

Row | LC retention time | SMILES
1 | 6.59 min | NC(=O)NCCCC[C@H](N)C(=O)O [L-Homocitrulline]
2 | 7.57 min | N[C@@H](CCSSCC[C@H](N)C(=O)O)C(=O)O [L-Homocystine]
3 | 6.32 min | N[C@@H](CCO)C(=O)O [L-Homoserine]
4 | 4.67 min | Nc1ccccc1C(=O)CC(N)C(=O)O [L-Kynurenine]
5 | 5.01 min | CC(C)C[C@H](N)C(=O)O [L-Leucine]
6 | 5.82 min | CC(C)C[C@H](N)C(=O)N[C@@H](C)C(=O)O [L-Leucyl-L-alanine]
7 | 7.67 min | NCCCC[C@H](N)C(=O)O [L-Lysine]
8 | 5.97 min | CSCC[C@H](N)C(=O)O [L-Methionine]
9 | 3.88 min | CN1CCCC1c1cccnc1 [L-Nicotine]
10 | 4.99 min | CCCC[C@H](N)C(=O)O [L-Norleucine]
11 | 5.65 min | CCC[C@H](N)C(=O)O [L-Norvaline]
12 | 4.83 min | N[C@@H](Cc1ccccc1)C(=O)O [L-Phenylalanine]
13 | 6.81 min | O=C1CC[C@@H](C(=O)O)N1 [L-Pyroglutamic acid]
14 | 6.56 min | N[C@@H](CO)C(=O)O [L-Serine]
15 | 6.22 min | C[C@@H](O)[C@H](N)C(=O)O [L-Threonine]
16 | 5.62 min | N[C@@H](Cc1ccc(O)cc1)C(=O)O [L-Tyrosine]
17 | 5.92 min | CC(C)[C@H](N)C(=O)O [L-Valine]
18 | 6.6 min | OCC1OC(OC2C(CO)OC(O)(CO)C2O)C(O)C(O)C1O (stereo not given) [Lactulose]
19 | 0.475 min | Cc1c(OCC(F)(F)F)ccnc1CS(=O)c1nc2ccccc2[nH]1 (stereo not given) [Lansoprazole]
20 | 0.455 min | CCCCCCCCCCCCOC(=O)c1cc(O)c(O)c(O)c1 [Lauryl gallate]
21 | 0.421 min | CC(=O)CCC(=O)O [Levulinic acid]
22 | 6.87 min | NCCCCC(NC(CCc1ccccc1)C(=O)O)C(=O)N1CCCC1C(=O)O (stereo not given) [Lisinopril]
23 | 0.433 min | CCOC(=O)N1CCC(=C2c3ccc(Cl)cc3CCc3cccnc32)CC1 [Loratadine]
24 | 0.419 min | CCC(C)C(=O)OC1CC(C)C=C2C=CC(C)C(CCC3CC(O)CC(=O)O3)C21 (stereo not given) [Lovastatin]
25 | 0.593 min | O=c1cc(-c2ccc(O)c(O)c2)oc2cc(O)cc(O)c12 [Luteolin]
26 | 6.59 min | OCC(O)C(O)C(OC1OC(CO)C(O)C(O)C1O)C(O)CO (stereo not given) [Maltitol]
27 | 7.44 min | OCC1OC(OC2C(CO)OC(OC3C(CO)OC(O)C(O)C3O)C(O)C2O)C(O)C(O)C1O (stereo not given) [Maltotriose]

Row | LC retention time | SMILES
28 | 0.429 min | CC(=O)C1(O)CCC2C3CC(C)C4=CC(=O)CCC4(C)C3CCC21C (stereo not given) [Medroxyprogesterone]
29 | 0.437 min | Cc1cccc(Nc2ccccc2C(=O)O)c1C [Mefenamic acid]
30 | 0.468 min | COc1ccc2[nH]cc(CCNC(C)=O)c2c1 [Melatonin]
31 | 7.08 min | OCC1OC(OCC2OC(O)C(O)C(O)C2O)C(O)C(O)C1O (stereo not given) [Melibiose]
32 | 0.416 min | Cc1cnc(NC(=O)C2=C(O)c3ccccc3S(=O)(=O)N2C)s1 [Meloxicam]
33 | 1.94 min | CC12CC3CC(C)(C1)CC(N)(C3)C2 [Memantine]
34 | 3.67 min | CN(C)C(=N)N=C(N)N [Metformin]
35 | 0.431 min | COC(=O)Cc1c[nH]c2ccccc12 [Methyl 3-indolyacetate]
36 | 0.625 min | COC(=O)c1cccnc1 [Methyl nicotinate]
37 | 0.415 min | COC(=O)Cc1ccc(C(C)(C)C)cc1 [Methyl p-tert-butylphenylacetate]
38 | 0.562 min | COC(=O)CCCC(=O)O [Monomethyl glutarate]
39 | 8.5 min | CC(=O)NCCCNCCCCNCCCN [N1-Acetylspermine]
40 | 7.25 min | CC(=O)NCCCCNCCCN [N8-Acetylspermidine]
41 | 0.564 min | CNC(=O)c1cccnc1 [N'-Methylnicotinamide]
42 | 5.8 min | CN(C)CC(=O)O [N,N-Dimethylglycine]
43 | 1.25 min | O=C(O)CNC(=O)CCc1ccccc1 [N-(3-Phenylpropionyl)glycine]
44 | 4.61 min | CC(=O)NCCCCCN [N-(5-Aminopentyl)acetamide]
45 | 0.492 min | CC(=O)NCCc1c[nH]c2ccc(O)cc12 [N-Acetyl-5-hydroxytryptamine]
46 | 4.98 min | CC(=O)N1CCC[C@H]1C(=O)O [N-Acetyl-L-Proline]
47 | 4.36 min | CC(=O)N[C@@H](C)C(=O)O [N-Acetyl-L-alanine]
48 | 6.21 min | CC(=O)N[C@@H](CCCN=C(N)N)C(=O)O [N-Acetyl-L-arginine]
49 | 3.49 min | CC(=O)N[C@@H](CS)C(=O)O [N-Acetyl-L-cysteine]
50 | 1.18 min | CC(=O)N[C@@H](CC(C)C)C(=O)O [N-Acetyl-L-leucine]
51 | 1.97 min | CSCC[C@H](NC(C)=O)C(=O)O [N-Acetyl-L-methionine]
52 | 6.58 min | CC(=O)N[C@@H](CCCN)C(=O)O [N-Acetyl-L-ornithine]
53 | 1.32 min | CC(=O)N[C@@H](Cc1ccccc1)C(=O)O [N-Acetyl-L-phenylalanine]
54 | 2.85 min | CC(=O)N[C@@H](Cc1ccc(O)cc1)C(=O)O [N-Acetyl-L-tyrosine]

The next lines start with the compound.

Row | SMILES | LC retention time
55 | Nc1nc2nc[nH]c2c(=O)[nH]1 [Guanine] | 3.98 min
56 | Nc1nc2c(ncn2C2OC(COP(=O)(O)OP(=O)(O)O)C(O)C2O)c(=O)[nH]1 (stereo not given) [Guanosine 5'-diphosphate] | 9.21 min
57 | Nc1nc2c(ncn2C2OC(COP(=O)(O)O)C(O)C2O)c(=O)[nH]1 (stereo not given) [Guanosine 5'-monophosphate] | 7.36 min
58 | Nc1nc2c(ncn2C2OC(CO)C(O)C2O)c(=O)[nH]1 (stereo not given) [Guanosine] | 4.96 min
59 | NC(=O)C(N)Cc1c[nH]c2ccccc12 (stereo not given) [H-Trp-NH2] | 3.39 min
60 | COc1ccc(C2CC(=O)c3c(O)cc(OC4OC(COC5OC(C)C(O)C(O)C5O)C(O)C(O)C4O)cc3O2)cc1O (stereo not given) [Hesperidin] | 2.97 min
61 | CCCCCC(=O)NCC(=O)O [Hexanoyl Glycine] | 1.27 min
62 | O=C(O)CNC(=O)c1ccccc1 [Hippuric acid] | 1.59 min
63 | NCCc1cnc[nH]1 [Histamine] | 7.92 min
64 | CC12CCC(=O)C=C1CCC1C2C(O)CC2(C)C1CCC2(O)C(=O)CO (stereo not given) [Hydrocortisone] | 0.479 min
65 | CC12C=CC(=O)C=C1CCC1C2C(O)CC2(C)C1CCC2(O)C(=O)CO (stereo not given) [Hydroretrocortine] | 0.485 min
66 | NCCS(=O)O [Hypotaurine] | 6.07 min
67 | O=c1[nH]cnc2nc[nH]c12 [Hypoxanthine] | 2.29 min
68 | O=C(O)Cc1cnc[nH]1 [Imidazole-4(5)-acetic Acid] | 6.1 min
69 | CN(C)CCCN1c2ccccc2CCc2ccccc21 [Imipramine] | 0.939 min
70 | NC(=O)Cc1c[nH]c2ccccc12 [Indole-3-acetamide] | 0.475 min
71 | O=C(O)c1c[nH]c2ccccc12 [Indole-3-carboxylic acid] | 0.506 min
72 | OCCc1c[nH]c2ccccc12 [Indole-3-ethanol] | 1.31 min
73 | O=C(O)C(=O)Cc1c[nH]c2ccccc12 [Indole-3-pyruvic acid] | 0.455 min
74 | O=c1[nH]cnc2c1ncn2C1OC(CO)C(O)C1O (stereo not given) [Inosine] | 3.94 min
75 | CC(C)Oc1ccc2c(=O)c(-c3ccccc3)coc2c1 [Ipriflavone] | 0.767 min
76 | CCCCC1=NC2(CCCC2)C(=O)N1Cc1ccc(-c2ccccc2-c2nn[nH]n2)cc1 [Irbesartan] | 0.475 min
77 | O=C(O)c1ccncc1 [Isonicotinic acid] | 3.05 min

Row | SMILES | LC retention time
78 | Nc1nc2[nH]c(=O)cnc2c(=O)[nH]1 [Isoxanthopterin] | 4.02 min
79 | CC(C(=O)O)c1cccc(C(=O)c2ccccc2)c1 (stereo not given) [Ketoprofen] | 0.455 min
80 | O=C(c1ccccc1)c1ccc2n1CCC2C(=O)O (stereo not given) [Ketorolac] | 0.567 min
81 | O=c1cc(CO)occ1O [Kojic acid] | 1.22 min
82 | O=C(O)c1cc(=O)c2ccccc2[nH]1 [Kynurenic acid] | 3.56 min
83 | O=C(O)C1CCCCN1 (stereo not drawn) [L(-)-Pipecolinic acid] | 5.85 min
84 | N[C@@H](Cc1c[nH]c2ccc(O)cc12)C(=O)O [L-5-Hydroxytryptophan] | 5.36 min
85 | Cn1cncc1CC(NC(=O)CCN)C(=O)O [L-Anserine] | 7.92 min
86 | NC(N)=NCCC[C@H](N)C(=O)O [L-Arginine] | 7.48 min
87 | NC(=O)C[C@H](N)C(=O)O [L-Asparagine] | 6.65 min
88 | C[N+](C)(C)C[C@H](O)CC(=O)[O-] [L-Carnitine] | 6.22 min
89 | NCCC(=O)NC(Cc1cnc[nH]1)C(=O)O [L-Carnosine] | 7.75 min
90 | NC(=O)NCCC[C@H](N)C(=O)O [L-Citrulline] | 6.76 min
91 | N[C@@H](CS(=O)(=O)O)C(=O)O [L-Cysteic acid] | 6.79 min
92 | N[C@@H](CSSC[C@H](N)C(=O)O)C(=O)O [L-Cystine] | 8.16 min
93 | N[C@@H](Cc1ccc(O)c(O)c1)C(=O)O [L-Dopa] | 6.06 min
94 | NC(=O)CC[C@H](N)C(=O)O [L-Glutamine] | 6.54 min
95 | NC(CCC(=O)NC(CSSCC(NC(=O)CCC(N)C(=O)O)C(=O)NCC(=O)O)C(=O)NCC(=O)O)C(=O)O [L-Glutathione oxidized] | 8.69 min
96 | NC(CCC(=O)NC(CS)C(=O)NCC(=O)O)C(=O)O [L-Glutathione reduced] | 7.03 min
97 | N[C@@H](Cc1cnc[nH]1)C(=O)O [L-Histidine] | 7.73 min
98 | N[C@H](CO)Cc1cnc[nH]1 [L-Histidinol] | 7.05 min
99 | NC(N)=NCCCC[C@H](N)C(=O)O [L-Homoarginine] | 7.39 min
100 | COc1ccc(OC)c(C(O)C(C)N)c1 (stereo not given) [Methoxamine] | 2.4 min
